According to US20190352276A1, “INHIBITORS OF BRUTON'S TYROSINE KINASE” (Joint Stock Company "Biocad", priority 2016, published 2019):

How the values were obtained:
[1] = Permeability through the monolayer of Caco-2 cells; type: in vitro ADME; settings: human; for Papp A→B at 2 h, 10 μM / Papp B→A at 2 h, 10 μM: 2 h at 37° C.; for efflux ratio at 2 h, 10 μM: read-out: efflux (Papp B-A/Papp A-B)
Procedure, shortened: (§1)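 Caco-2 monolayers grown 21 days on 0.4 μm transwell filters, integrity checked with Lucifer Yellow. Compounds at 10 μM were added apically at pH 6.5 (A→B) or basolaterally at pH 7.4 with 1% BSA (B→A) and sampled after 2 h. Concentrations by HPLC; Papp calculated, efflux ratio as Papp B-A/Papp A-B.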

Caco-2 cells = test: Permeability through the monolayer of Caco-2 cells; type: in vitro ADME
Procedure, shortened: as §1

Papp A→B at 2 h, 10 μM [1] [×10⁻⁶ cm/s]	Papp B→A at 2 h, 10 μM [1] [×10⁻⁶ cm/s]	efflux ratio at 2 h, 10 μM [1]	efflux (Papp B-A/Papp A-B) (Caco-2 cells)	SMILES
8.3	1.5	0.2		C=CC(=O)N1CCC[C@@H](n2nc(-c3ccc(C(=O)Nc4cc(C(F)(F)F)ccn4)cc3)c3c(N)ncc(Cl)c32)C1 [BCD-BTK-251, (R)-4-(1-(1-acryloylpiperidin-3-yl)-4-amino-7-chloro-1H-pyrazolo[4,3-c]pyridin-3-yl)-N-(4-(trifluoromethyl)pyridin-2-yl)benzamide]
21	13.2	0.6		C=CC(=O)N1CCC[C@@H](n2nc(-c3ccc(Oc4ccncc4)cc3)c3cncc(Cl)c32)C1 [BCD-BTK-125, (R)-1-(1-acryloylpiperidin-3-yl)-7-chloro-3-(4-(pyridin-4-yloxy)phenyl)-1H-pyrazolo[4,3-c]pyridine]
52.2	5.7	0.1		C=CC(=O)N1CCC[C@@H](n2nc(-c3ccc(Oc4ccncc4)cc3)c3c(N)ncc(Cl)c32)C1 [BCD-BTK-139, (R)-1-(1-acryloylpiperidin-3-yl)-7-chloro-3-(4-(pyridin-4-yloxy)phenyl)-1H-pyrazolo[4,3-c]pyridin-4-amine]
18.2	11.1	0.61		C=CC(=O)N1CCC[C@@H](n2nc(-c3ccc(C(=O)Nc4ccccn4)cc3)c3c(N)ncc(OC)c32)C1 [BCD-BTK-240, (R)-4-(1-(1-acryloylpiperidin-3-yl)-4-amino-7-methoxy-1H-pyrazolo[4,3-c]pyridin-3-yl)-N-(pyridin-2-yl)benzamide]
26.5	2.68	0.1		C=CC(=O)N1CCC[C@@H](n2nc(-c3ccc(Oc4cccnc4C#N)cc3)c3cncc(F)c32)C1 [BCD-BTK-230, (R)-3-(4-(1-(1-acryloylpiperidin-3-yl)-7-fluoro-1H-pyrazolo[4,3-c]pyridin-3-yl)phenoxy)picolinonitrile]
8.2	9.2	1.1		C=CC(=O)N1CCC[C@@H](n2nc(-c3ccc(C(=O)Nc4ccccn4)cc3)c3c(N)ncc(C#N)c32)C1 [BCD-BTK-234, (R)-4-(1-(1-acryloylpiperidin-3-yl)-4-amino-7-cyano-1H-pyrazolo[4,3-c]pyridin-3-yl)-N-(pyridine-2-yl)benzamide]
20.3	1.91		0.09	C=CC(=O)N1CCC[C@@H](n2nc(-c3ccc(Oc4ccncc4C#N)cc3)c3cncc(Cl)c32)C1 [BCD-BTK-202, (R)-4-(4-(1-(1-acryloylpiperidin-3-yl)-7-chloro-1H-pyrazolo[4,3-c]pyridin-3-yl)phenoxy)nicotinonitrile]
11.6	0.07		0.006	C=CC(=O)N1CCC[C@@H](n2nc(-c3cnc(C(=O)Nc4cc(C(F)(F)CCC)ccn4)nc3)c3cncc(Cl)c32)C1 [BCD-BTK-292, (R)-5-(1-(1-acryloylpiperidin-3-yl)-7-chloro-1H-pyrazolo[4,3-c]pyridin-3-yl)-N-(4-(1,1-difluorobutyl)pyridin-2-yl)pyrimidine-2-carboxamide]
